According to patent US20230183219A1, “CONDENSED SUBSTITUTED HYDROPYRROLES AS ANTAGONISTS OF THE MUSCARINIC ACETYLCHOLINE RECEPTOR M4” (Vanderbilt University, priority 2020, published 2023):

Molecular target: T1, Human M4 (Homo sapiens, UniProt P08173)
T1 construct: Human or rat M4 cDNA, along with the chimeric G protein Gqi5, were transfected into Chinese hamster ovary (CHO-K1) cells; expressed in transfected cells; host or cells: CHO-K1 (Chinese hamster ovary, ATCC), stably co-expressing Gqi5
T1 sequence (P08173 1-479): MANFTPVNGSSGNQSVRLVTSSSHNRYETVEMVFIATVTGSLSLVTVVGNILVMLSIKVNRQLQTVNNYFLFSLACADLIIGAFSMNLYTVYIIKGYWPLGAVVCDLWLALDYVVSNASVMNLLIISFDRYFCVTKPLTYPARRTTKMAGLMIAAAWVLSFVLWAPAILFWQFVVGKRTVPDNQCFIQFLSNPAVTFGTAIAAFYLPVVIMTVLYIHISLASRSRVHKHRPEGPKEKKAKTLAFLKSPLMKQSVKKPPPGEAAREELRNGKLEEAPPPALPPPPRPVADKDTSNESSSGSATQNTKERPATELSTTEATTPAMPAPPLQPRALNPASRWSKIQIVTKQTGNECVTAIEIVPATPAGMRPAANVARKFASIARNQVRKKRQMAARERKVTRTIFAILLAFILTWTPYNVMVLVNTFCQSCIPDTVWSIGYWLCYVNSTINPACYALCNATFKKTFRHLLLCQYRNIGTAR
Assay: mAChR M4 cell-based functional assay (calcium flux, decrease of EC80 acetylcholine response)
Conditions: for remaining activity at 30 µM: read-out: Human M4 Emin; for IC50: M4/Gqi5/CHO-K1 cells, decrease of response to EC80 acetylcholine
Summary of the method: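 CHO-K1 cells stably co-expressing M4 and chimeric Gqi5, loaded with Fluo-4 AM; calcium flux read on FDSS. Compound added at 2 s, EC20 acetylcholine at 143 s, EC80 acetylcholine at 268 s. IC50 from concentration-dependent decrease of the EC80 response, four-parameter logistic fit; 10-point 1:3 titrations.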

Compound | remaining activity at 30 µM (% ACh maximum at 30 μM) [%] | IC50 [nM] | Human M4 Emin (% ACh maximum at 30 μM) [%]
Cc1ccc(C)c(-c2cc(C(F)(F)F)c(N[C@H]3C[C@@H]4CN(C[C@H]5COCCO5)C[C@@H]4C3)nn2)c1 [Example 72, (3aR,5s,6aS)-2-(((S)-1,4-dioxan-2-yl)methyl)-N-(6-(2,5-dimethylphenyl)-4-(trifluoromethyl)pyridazin-3-yl)octahydro-cyclopenta[c]pyrrol-5-amine] | 3 | 52.9 | –
[2H]C([2H])(C1CCOCC1)N1C[C@H]2C[C@H](Nc3nnc(-c4ccc(F)cc4C)cc3C(F)(F)F)C[C@H]2C1 [Example 110, (3aR,5s,6aS)-N-(6-(4-fluoro-2-methylphenyl)-4-(trifluoromethyl)pyridazin-3-yl)-2-((tetrahydro-2H-pyran-4-yl)methyl-d2)octahydro-cyclopenta[c]pyrrol-5-amine] | 3 | 46.7 | –
[2H]C([2H])(C1CCOCC1)N1C[C@H]2C[C@H](Nc3nnc(-c4cc(F)ccc4F)cc3C(F)(F)F)C[C@H]2C1 [Example 50, (3aR,5s,6aS)-N-(6-(2,5-difluorophenyl)-4-(trifluoromethyl)pyridazin-3-yl)-2-((tetrahydro-2H-pyran-4-yl)methyl-d2)octahydro-cyclopenta[c]pyrrol-5-amine] | 3 | 144 | –
[2H]C([2H])(C1CCOCC1)N1C[C@H]2C[C@H](Nc3nnc(-c4cc(F)ccc4Cl)cc3C(F)(F)F)C[C@H]2C1 [Example 16, (3aR,5s,6aS)-N-(6-(2-chloro-5-fluorophenyl)-4-(trifluoro-methyl)pyridazin-3-yl)-2-((tetrahydro-2H-pyran-4-yl)methyl-d2)octahydro-cyclopenta[c]pyrrol-5-amine] | 3 | 9.2 | –
Cc1cc(F)ccc1-c1cc(C(F)(F)F)c(N[C@H]2C[C@@H]3CN(CC4CCOCC4)C[C@@H]3C2)nn1 [Example 74, (3aR,5s,6aS)-N-(6-(4-fluoro-2-methylphenyl)-4-(trifluoromethyl)pyridazin-3-yl)-2-((tetrahydro-2H-pyran-4-yl)methyl)octahydro-cyclopenta[c]pyrrol-5-amine] | 3 | 38.9 | –
Cc1ccc(C(F)(F)F)cc1-c1cc(C(F)(F)F)c(N[C@H]2C[C@@H]3CN(CC4CCOCC4)C[C@@H]3C2)nn1 [Example 53, (3aR,5s,6aS)-N-(6-(2-methyl-5-(trifluoromethyl)phenyl)-4-(trifluoromethyl)pyridazin-3-yl)-2-((tetrahydro-2H-pyran-4-yl)methyl)octahydro-cyclopenta[c]pyrrol-5-amine] | 3 | 315 | –
Cn1cc2cc(-c3cnc(N[C@H]4C[C@@H]5CN(Cc6ccc7c(c6)OCO7)C[C@@H]5C4)nc3)ccc2n1 [Example 13, (3aR,5s,6aS)-2-(benzo[d][1,3]dioxol-5-ylmethyl)-N-(5-(2-methyl-2H-indazol-5-yl)pyrimidin-2-yl)octahydro-cyclopenta[c]pyrrol-5-amine] | 10 | 5290 | –
Cc1ccc(F)cc1-c1cc(C(F)(F)F)c(N[C@H]2C[C@@H]3CN(C[C@H]4CC5CCC4O5)C[C@@H]3C2)nn1 (stereo partly drawn) [Example 25, (3aR,5s,6aS)-2-(((2R)-7-oxabicyclo[2.2.1]heptan-2-yl)methyl)-N-(6-(5-fluoro-2-methylphenyl)-4-(trifluoromethyl)pyridazin-3-yl)octahydro-cyclopenta[c]pyrrol-5-amine] | 2 | 11.1 | –
Fc1ccc(F)c(-c2cc(C(F)(F)F)c(N[C@H]3C[C@@H]4CN(Cc5ccccn5)C[C@@H]4C3)nn2)c1 [Example 48, (3aR,5s,6aS)-N-(6-(2,5-difluorophenyl)-4-(trifluoromethyl)pyridazin-3-yl)-2-(pyridin-2-ylmethyl)octahydro-cyclopenta[c]pyrrol-5-amine] | 3 | 615 | –
Fc1ccc(-c2cc(C(F)(F)F)c(N[C@H]3C[C@@H]4CN(CC5CCOCC5)C[C@@H]4C3)nn2)c(F)c1 [Example 82, (3aR,5s,6aS)-N-(6-(2,4-difluorophenyl)-4-(trifluoro-methyl)pyridazin-3-yl)-2-((tetrahydro-2H-pyran-4-yl)methyl)octahydro-cyclopenta[c]pyrrol-5-amine] | 3 | 286 | –
[2H]C([2H])(C1CCOCC1)N1C[C@H]2C[C@H](Nc3nnc(-c4ccccc4OC)cc3C(F)(F)F)C[C@H]2C1 [Example 107, (3aR,5s,6aS)-N-(6-(2-methoxyphenyl)-4-(trifluoromethyl)pyridazin-3-yl)-2-((tetrahydro-2H-pyran-4-yl)methyl-d2)octahydro-cyclopenta[c]pyrrol-5-amine] | 3 | 26.4 | –
Cc1ccc(F)cc1-c1cc(C(F)(F)F)c(N[C@H]2C[C@@H]3CN(CC4(F)CCOCC4)C[C@@H]3C2)nn1 [Example 23, (3aR,5s,6aS)-N-(6-(5-fluoro-2-methylphenyl)-4-(trifluoromethyl)pyridazin-3-yl)-2-((4-fluorotetrahydro-2H-pyran-4-yl)methyl)octahydro-cyclopenta[c]pyrrol-5-amine] | 3 | 23.7 | –
Cn1cnc2ccc(-c3cc(C(F)(F)F)c(N[C@H]4C[C@@H]5CN(CC6CCOCC6)C[C@@H]5C4)nn3)cc21 [Example 76, (3aR,5s,6aS)-N-(6-(1-methyl-1H-benzo[d]imidazol-6-yl)-4-(trifluoromethyl)pyridazin-3-yl)-2-((tetrahydro-2H-pyran-4-yl)methyl)octahydro-cyclopenta[c]pyrrol-5-amine] | 3 | 93.8 | –
Cc1ccc(F)cc1-c1cc(C(F)(F)F)c(N[C@H]2C[C@@H]3CN(CC4CCCCO4)C[C@@H]3C2)nn1 (single isomer, unassigned) [Example 119] | – | 14 | 3

The remaining lines, values ahead:

remaining activity at 30 µM (% ACh maximum at 30 μM) [%] | IC50 [nM] | Human M4 Emin (% ACh maximum at 30 μM) [%] | Compound
3 | 258 | – | COc1ccc(-c2cc(C(F)(F)F)c(N[C@H]3C[C@@H]4CN(CC5CCOCC5)C[C@@H]4C3)nn2)c(F)c1F [Example 62, (3aR,5s,6aS)-N-(6-(2,3-difluoro-4-methoxyphenyl)-4-(trifluoromethyl)pyridazin-3-yl)-2-((tetrahydro-2H-pyran-4-yl)methyl)octahydro-cyclopenta[c]pyrrol-5-amine]
3 | 280 | – | CCOc1cc(F)c(-c2cc(C(F)(F)F)c(N[C@H]3C[C@@H]4CN(CC5CCOCC5)C[C@@H]4C3)nn2)cc1F [Example 91, (3aR,5s,6aS)-N-(6-(4-ethoxy-2,5-difluorophenyl)-4-(trifluoromethyl)pyridazin-3-yl)-2-((tetrahydro-2H-pyran-4-yl)methyl)octahydro-cyclopenta[c]pyrrol-5-amine]
3 | 10.3 | – | Cc1ccc(F)cc1-c1cc(C(F)(F)F)c(N[C@H]2C[C@@H]3CN(CC4CCCOC4)C[C@@H]3C2)nn1 (single isomer, unassigned) [Example 120]
4 | 200 | – | CN1Cc2cc(-c3cc(C(F)(F)F)c(N[C@H]4C[C@@H]5CN(CC6CCOCC6)C[C@@H]5C4)nn3)ccc2C1=O [Example 86, 2-methyl-5-(6-(((3aR,5s,6aS)-2-((tetrahydro-2H-pyran-4-yl)methyl)octahydro-cyclopenta[c]pyrrol-5-yl)amino)-5-(trifluoro-methyl)pyridazin-3-yl)isoindolin-1-one]
2 | 2.1 | – | Cc1c(-c2cc(C(F)(F)F)c(N[C@H]3C[C@@H]4CN(CC5CCOCC5)C[C@@H]4C3)nn2)ccc2nn(C)cc12 [Example 39, (3aR,5s,6aS)-N-(6-(2,4-dimethyl-2H-indazol-5-yl)-4-(trifluoromethyl)pyridazin-3-yl)-2-((tetrahydro-2H-pyran-4-yl)methyl)octahydro-cyclopenta[c]pyrrol-5-amine]
3 | 6.1 | – | Cc1cnc(F)cc1-c1cc(C(F)(F)F)c(N[C@H]2C[C@@H]3CN(CC4CCOCC4)C[C@@H]3C2)nn1 [Example 113, (3aR,5s,6aS)-N-(6-(2-fluoro-5-methylpyridin-4-yl)-4-(trifluoromethyl)pyridazin-3-yl)-2-((tetrahydro-2H-pyran-4-yl)methyl)octahydro-cyclopenta[c]pyrrol-5-amine]
6 | 188 | – | Cn1cc2cc(-c3cc(C(F)(F)F)c(N[C@H]4C[C@@H]5CN(C[C@H]6CCOC6)C[C@@H]5C4)nn3)ccc2n1 [Example 33, (3aR,5s,6aS)-N-(6-(2-methyl-2H-indazol-5-yl)-4-(trifluoro-methyl)pyridazin-3-yl)-2-(((R)-tetrahydrofuran-3-yl)methyl)octahydro-cyclopenta[c]pyrrol-5-amine]
